{
  "source": "patent US11701361B2",
  "about": "“p110-delta inhibitors treat and prevent autoimmunity while sparing the ability to mount an immune response to exogenous immunogens” (THE REGENTS OF THE UNIVERSITY OF COLORADO, priority 2018, dated 2023)",
  "key": {"[1]": {"tested_on": "BTK", "assay": "phosphorylated signaling intermediaries after BCR stimulation: BTK", "format": "cell-based, mouse", "conditions": "all doses of inhibitor (15, 60, 490 nM), preincubation", "procedure": "Cells are then washed 2× in serum free IMDM, and stimulated with 5 μg/ml of F(ab′)2 rabbit anti-mouse anti-IgG (H&L; Invitrogen) or 10 μg/ml anti-CD3-biotin (BD Biosciences)+20 μg/ml streptavidin (Sigma-Aldrich) for 2 minutes. Signaling was stopped by addition of 20% PFA to a final concentration of 2%, incubated at 37° C. for 15 minutes and resuspended in 100% ice-cold MeOH (directly from −80° C.). Cells were then placed on ice for 30 minutes and placed at −20° C. for storage. For analysis, cells were stained with B220-BV786, CD4-BV711, CD8-BV421, and/or pAKT-Alexa Fluor 647 (BD Biosciences), pPLCγ-PE (BD Biosciences), pBTK-BV421 (BD Biosciences) pSyk/Zap70-PE (BD Biosciences) at room temperature for 1 hour. Cells were washed 3 times and samples were acquired in triplicate on an LSR Fortessa X-20 (BD) with analysis using FlowJo software."}, "[2]": {"tested_on": "MD4 B cells", "assay": "MD4 B cell adoptive transfer, response to HEL-SRBC immunization", "format": "in vivo, mouse", "procedure": "2 hours before adoptive transfer, C57BL/6 recipient mice received 200 rads irradiation. […] B cells from donor mice were isolated via depletion of CD43+ cells with anti-CD43-conjugated magnetic beads (MACS anti-mouse CD43; Miltenyi Biotec). Alternatively, CD4+ T cells were isolated via CD4 positive selection (MACS anti-mouse CD4 (L3T4) Miltenyi Biotec). Resultant populations were >97% pure based on flow cytometric analyses. Donor B cells were labeled with either CellTrace Violet (Molecular Probes) or CFSE (Molecular Probes) at 5 μM for 5 minutes at room temperature prior to transfer. Donor CD4 T cells were labeled with CFSE (Molecular Probes) at 5 μM for 5 minutes at room temperature prior to transfer. 1-2×10^6 donor cells in 200 μl PBS were adoptively transferred via IV injection. 24 hours post transfer, tamoxifen was administered to activate Cre. Tamoxifen (Sigma-Aldrich) was dissolved in 100% corn oil (Sigma-Aldrich) at 20 mg/ml. Recipient mice were injected IP with 100 μl (2 mg) on two consecutive days.\nDiet dose (DD) is calculated by multiplying the single daily dose (SD) by the body weight of a mouse (BW) and dividing that by the daily food intake (FI) [DD=(SD×BW)/FI].\nFor VH125.NOD experiments animals are placed on control chow immediately after weaning.\nHEL conjugated to SRBCs was used to produce antigen for experiments with MD4 B cells. SRBCs (Colorado Serum Company) were stored in Alsever's solution at 4° C. SRBCs are washed 3 times in PBS prior to use. 1 ml of 50 mg/ml of the chemical crosslinker N-(3-Dimethylaminopropyl)-N-ethylcarbodiimide hydrochloride (Sigma-Aldrich) was added to 1 ml packed SRBCs and 15 ml of 5 mg/ml HEL (Sigma-Aldrich), mixed and rotated at room temperature for 45 minutes. Mice were immunized IP with 200 μl of a 5% HEL-SRBC in PBS. For NP4Ova-Alum immunizations, 10 mg/ml alum and 5 mg/ml NP4Ova were mixed to a final concentration of 250 μg/ml NP4Ova and 2.5 mg/ml alum and rotated for 3 hours at room temperature. […] Mice were then immunized with NP4Ova-alum IP in 200 μl/mouse, and responses were measured on day 7 and day 14 post-immunization.\nSpleens were mechanically disrupted, single-cell suspensions were generated, and red blood cells were lysed with ammonium chloride TRIS. Cells were resuspended in PBS containing 1% FBS and incubated with indicated antibodies. For analysis of cell surface markers, antibodies against the following molecules were used: B220-PE (BioLegend), B220-BV786 (BD Biosciences), B220-BV510 (BioLegend), CD4-BV711 (BioLegend), CD8-BV421 (BioLegend), CD138-PECy7 (BioLegend), CD69-BV786 (BD Biosciences), CD86-PerCPCy5.5 (BioLegend). After cell surface staining, the cells were fixed and permeabilized with Cytofix/Cytoperm (BD) per manufacturer's instructions and stained with Dylight650-E4 anti-Ars/A1 idiotype (produced and conjugated in our laboratory) OR HEL-650 (produced and conjugated in our laboratory) and Alexa Fluor 488-anti-GFP (rabbit polyclonal; Life Technologies). Events were collected on a CyAn ADP (Dako) and subsequent analysis using FlowJo software (Tree Star).\nFor detection of IgM^a anti-Ars antibodies, microtiter plates were coated with 10 μg/ml Ars-BSA16 in PBS and blocked with 2 mg/ml BSA in PBS 0.05% Tween-20. For detection of IgM^a anti-HEL antibodies, microtiter plates were coated with 10 μg/ml HEL in PBS and blocked with 2 mg/ml BSA in PBS 0.05% Tween-20. For detection of total NP-specific IgM and IgG, microtiter plates were coated with 20 μg/ml NP27BSA and blocked with 2 mg/ml BSA in PBS 0.05% Tween-20. For detection of high affinity NP-specific IgM and IgG, microtiter plates were coated with 20 μg/ml NP2BSA and blocked with 2 mg/ml BSA in PBS 0.05% Tween-20. Serial dilutions of mouse serum in PBS were added and incubated overnight at 4° C. Ars/A1-derived IgM^a antibodies and MD4-derived HEL IgM^a antibodies were detected with biotinylated DS.1 anti-IgM^a (BD Pharmingen) in PBS, followed by Streptavidin-HRP (Thermo Fisher Scientific). […]"}, "[3]": {"conditions": "0.9375 mg/kg chow vs vehicle control, 5 days post immunization"}, "[4]": {"conditions": "3.75 mg/kg and 30 mg/kg chow vs vehicle control, 5 days post immunization"}},
  "data": [
    {"smiles": "CC[C@H](Nc1ncnc2nc[nH]c12)c1nc2cccc(F)c2c(=O)n1-c1ccccc1", "note": "[idelalisib, 5-fluoro-3-phenyl-2-[(1S)-1-(7H-purin-6-ylamino)propyl]-4(3H)-quinazolinone]", "values": [
      {"measurement": "phosphorylation of BTK", "setting": "[1]", "value": "significantly reduced"},
      {"measurement": "HEL-specific ASCs/spleen", "setting": "[2]; [3]", "value": "equivalent"},
      {"measurement": "IgM anti-HEL antibody response", "setting": "[2]; [3]", "value": "equivalent"},
      {"measurement": "proliferation of recovered MD4 B cells", "setting": "[2]; 3.75 mg/kg and 30 mg/kg chow", "value": "proliferated less than in controls"},
      {"measurement": "recoverable transferred MD4 B cells in the spleen", "setting": "[2]; 3.75 mg/kg and 30 mg/kg chow", "value": "significant decreases"},
      {"measurement": "IgM anti-HEL antibody response", "setting": "[2]; [4]", "value": "significantly reduced"},
      {"measurement": "number of ASCs/spleen", "setting": "[2]; [4]", "value": "reduced"}
    ]}
  ]
}
